Active and inactive are the calls of the source. The rule behind the calls is not given here.
These compounds were tested on parental cell line counter screen, S1P1 agonist assay readout (assay: signal in parental cells, counter-screen for S1P1 agonist project (AID 467);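 note: agonist potency measured against forskolin stimulation plus an EC20 level of SEW2871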).

SMILES | EC50
Cc1ccc(-c2csc3ncnc(Sc4nnc(CN5CCCCCC5=O)o4)c23)cc1 | 2.73 µM
CCOc1ccccc1OCCCCCc1c(C)n[nH]c1C | > 30 µM (inactive)
O=C(Nc1ncc(Br)s1)C(Cc1ccccc1)n1cccc1 (centres undefined) | > 10 µM (inactive)
COCCn1c(C)cc(C(=O)CSc2nnc(-c3cccnc3)n2-c2ccccc2F)c1C | > 95.1 µM (inactive)
O=S1(=O)Nc2c(ccc3cccnc23)-c2ccccc21 | > 95.1 µM (inactive)
COCCN(C(=O)c1ccccc1)c1nnc(-c2cccnc2)s1 | > 95.1 µM (inactive)
CC1CCc2nc(NC(=O)CSc3nc4ccccc4o3)sc2C1 (centres undefined) | > 95.1 µM (inactive)
CCCc1cc(C(=O)N2CCN(C(c3ccccc3)c3ccccc3)CC2)no1 | > 95.1 µM (inactive)
COc1cccc(-c2cc(C(=O)Nc3ccccc3SC)no2)c1 | > 95.1 µM (inactive)
COc1ccc(-c2noc(-c3ccccc3F)n2)cc1 | > 95.1 µM (inactive)
Cc1cc2nc(-c3ccc(NC(=O)C(C)C)cc3)oc2cc1C | > 95.1 µM (inactive)
Cc1ccc(S(=O)(=O)n2nc(C)c(Br)c2C)c(C)c1C | > 95.1 µM (inactive)
O=C(Nc1nc(-c2nc3ccccc3s2)cs1)c1ccc(S(=O)(=O)N2CCOCC2)cc1 | 27.5 µM (inactive)
CC1=CC(C)(C)Nc2ccc(OC(=O)c3cccnc3)cc21 | 4.43 µM
Cc1ccccc1OCCCCc1c(C)n[nH]c1C | > 30 µM (inactive)
CCOc1nc(C)ccc1-c1noc(-c2ccncc2)n1 | > 95.1 µM (inactive)
Clc1ccc(-c2nc3nc4ccccc4nc3n2Cc2ccco2)cc1 | > 95.1 µM (inactive)
Cc1nn(Cc2ccc(Cl)c(Cl)c2)c(C)c1NC(=O)c1cc(-c2ccco2)on1 | 13.2 µM (inactive)
CCc1ccc(N(CC)c2ncnc3nc[nH]c23)cc1 | > 95.1 µM (inactive)
O=C(CCC(=O)N(Cc1ccco1)C(C(=O)NC1CCCC1)c1ccncc1)Nc1cccnc1 (centres undefined) | > 95.1 µM (inactive)
N#Cc1ccc(NC(=O)Nc2ccc(Cl)cc2)cc1 | 9.6 µM
O=C(CSc1nnc(-c2c[nH]c3ccccc23)o1)N1c2ccccc2CCc2ccccc21 | > 95.1 µM (inactive)
COc1ccc(-c2nc(-c3cccc(C)c3)no2)cc1OC | > 95.1 µM (inactive)
Cc1ccccc1-n1c(SCC(=O)c2cc(C)n(C)c2C)nnc1-c1ccncc1 | > 95.1 µM (inactive)
CCN=c1scc(-c2ccc3c(c2)NC(=O)CO3)n1N=C1CCCC1 | > 30 µM (inactive)
Cc1ccc2oc(-c3ccc(NC(=O)c4cccnc4)cc3)nc2c1 | > 95.1 µM (inactive)

SMILES | EC50
CCn1nc(-c2ccccc2)nc2c(=O)n(C)c(=O)nc1-2 | 2.09 µM
Cc1occc1C(=O)N1CCN(c2ccc(Cl)c(Cl)c2)CC1 | 43.9 µM (inactive)
Cc1onc(-c2ccccc2Cl)c1C(=O)Oc1cc(N)n(S(=O)(=O)c2ccc(F)cc2)n1 | 9.2 µM
Cc1oc2cc(O)cc(O)c2c(=O)c1-c1ccc2c(c1)OCCCO2 | > 30 µM (inactive)
COc1ccc2ncn(-c3ccccc3)c2c1 | > 95.1 µM (inactive)
O=C(CSc1nnc(-c2cc3ccccc3cc2O)n1Cc1ccco1)c1ccc(F)cc1 | > 10 µM (inactive)
Oc1ccc(-c2nnc(-c3ccc(O)cc3)nn2)cc1 | > 95.1 µM (inactive)
c1ccc(-c2ccc(-c3nc(-c4ccncc4)no3)cc2)cc1 | > 95.1 µM (inactive)
CCOc1ccc(-c2nnc(-c3cccnc3)o2)cc1OCC | > 95.1 µM (inactive)
Cc1cc(C(=O)CSc2nnc(-c3cccnc3)n2-c2ccccc2F)c(C)n1C | > 95.1 µM (inactive)
O=C(Nc1ccc(C(F)(F)F)cc1)C1CCCN1S(=O)(=O)c1cccc2cccnc12 (centres undefined) | > 30 µM (inactive)
Cc1csc(NC(=O)C(Cc2ccccc2)n2cccc2)n1 (centres undefined) | > 30 µM (inactive)
CC(C)COC(=O)NCCOC(=O)Nc1cccc(Cl)c1 | 27.7 µM (inactive)
Cc1ccc2[nH]c3c(NCc4ccco4)ncnc3c2c1 | 30.9 µM (inactive)
COc1cccc(-c2csc(N3CCN(CC(=O)Nc4ccc5c(c4)OCO5)CC3)n2)c1 | > 30 µM (inactive)
CCCC(=O)c1ccc(N2CCN(C(=O)c3ccccc3Br)CC2)c(F)c1 | 28.2 µM (inactive)
Cc1cccc(-n2ncc3c(N(C)C4CCCCC4)ncnc32)c1 | > 95.1 µM (inactive)
O=S1(=O)C=C(Sc2nc3cc(Cl)ccc3o2)c2ccccc21 | 6.35 µM
c1ccc(N2CCN(Cc3ccnc4ccccc34)CC2)cc1 | 47.9 µM (inactive)
CCOc1ccc(-c2noc(-c3ccncc3)n2)cc1OCC | > 95.1 µM (inactive)
CCN(CC)c1ccc2cc(NC(=O)CCC(=O)O)c(=O)oc2c1 | 6.1 µM
Cc1ccc(C(=O)Nc2nc(COc3ccccc3)cs2)s1 | 28.9 µM (inactive)
CN1c2ccccc2C(C)(C)C12C=Cc1cc(O)ccc1O2 (centres undefined) | > 10 µM (inactive)
COc1cccc(NC(=O)Nc2nnc(N3CCCCC3C)s2)c1 (centres undefined) | 40 µM (inactive)
CC(C)Oc1cc(O)c2c(=O)c(-c3ccc(O)cc3)coc2c1 | 20.5 µM (inactive)
COC(=O)CC1SC(=O)NC1=Nc1ccccc1 (centres undefined) | > 95.1 µM (inactive)

SMILES | EC50
CC1=CC(C)(C)Nc2ccc(OC(=O)c3ccco3)cc21 | > 3 µM (inactive)
CC(C)(C)OC(=O)N[C@@H](Cc1ccccc1)c1nnc(S(=O)(=O)Cc2ccccc2)o1 | 1.51 µM
Cc1ccc2[nH]c3c(N4CCCCCC4)ncnc3c2c1 | 10.9 µM (inactive)
c1csc(CCNc2ncnc3sc4c(c23)CCC4)c1 | 20.3 µM (inactive)
N#Cc1nc(-c2ccc(OCc3ccccc3)cc2)oc1NCc1cccnc1 | > 95.1 µM (inactive)
COc1ccc(NC(=O)c2cnn3c(C(F)(F)F)cc(-c4ccco4)nc23)cc1OC | > 95.1 µM (inactive)
Cc1cc(C(=O)CSc2nnc(-c3cccs3)o2)c(C)n1-c1ccccc1 | 19.2 µM (inactive)
CCOc1cc(C2NCc3ccccc3-n3cccc32)ccc1O (centres undefined) | > 95.1 µM (inactive)
COc1ccccc1-c1cc(C(=O)Nc2ccccc2SC)no1 | > 95.1 µM (inactive)
Cc1noc(C)c1S(=O)(=O)N(CC(=O)Nc1ccc2c(c1)OCO2)c1ccc(C(C)C)cc1 | > 95.1 µM (inactive)
O=C1C2C3C=CC(CO)(O3)C2C(=O)N1c1ccccc1-c1ccccc1 (centres undefined) | 2.26 µM
CC1=C(C(=O)OCc2ccc3c(c2)OCO3)C(c2ccc(F)cc2)NC(=O)N1 (centres undefined) | 2.3 µM
COC(=O)c1ccc(CSc2nc3ccccc3c(=O)n2Cc2ccco2)o1 | > 95.1 µM (inactive)
Cc1nnc2ccc(Oc3ccc(-c4ccccc4)cc3)nn12 | > 30 µM (inactive)
CCOC(=O)c1oc2cc(O)c(CC)cc2c(=O)c1-c1ccc2c(c1)OCCO2 | > 30 µM (inactive)
Cc1nc2sccn2c1-c1csc(NCc2ccccc2)n1 | 20 µM (inactive)
Cc1ccc(S(=O)(=O)Nc2cccc3ncccc23)s1 | > 95.1 µM (inactive)
C/C(N)=C(/C#N)C(=O)CSc1nc2cc(Cl)ccc2s1 | 49.5 µM (inactive)
O=C(CSc1nnc(Cc2csc(Nc3cccc(Cl)c3)n2)o1)N1CCc2ccccc21 | > 95.1 µM (inactive)
CCCc1ccc(Oc2cn[nH]c2-c2ccc(O)cc2O)cc1 | > 10 µM (inactive)
Cc1nc2ncnn2c(N2CCN(c3cccc(C(F)(F)F)c3)CC2)c1C | > 30 µM (inactive)
COc1ccccc1-n1nnnc1S(=O)(=O)Cc1ccc(Cl)cc1 | 3.05 µM
CCc1nnc(NC(=O)C2CCCCC2)s1 | > 95.1 µM (inactive)
CC(C)Cn1c(N)c(C(=O)CSc2ccc3c(c2)OCCO3)c(=O)n(C)c1=O | 88.5 µM (inactive)
COc1ccc2c(c1)CCc1c(C(=O)NC3CCCCC3)noc1-2 | > 95.1 µM (inactive)
O=C(CSc1nc2ccccc2o1)Nc1ccc(N2CCOCC2)c(Cl)c1 | 19.6 µM (inactive)

SMILES | EC50
Cc1nn(C(=O)c2cccs2)c(N)c1-c1ccccc1 | > 30 µM (inactive)
CC(C)c1ccc2oc(-c3cc(N)ccc3O)nc2c1 | > 30 µM (inactive)
c1ccc(CSc2nnc(-c3cccs3)o2)cc1 | > 95.1 µM (inactive)
COc1ccc(C(=O)C(CN2CCOCC2)c2ccccc2)cc1F (centres undefined) | 8.06 µM
CCN(CC)C(=O)CSC(=Nc1ccccc1F)NC#N | > 95.1 µM (inactive)
O=C(Nc1ccc(Cl)cc1)N1CCC(c2nc(-c3ccc(F)cc3)no2)CC1 | 20 µM (inactive)
c1ccc2c(c1)CCN(c1ncnc3c1[nH]c1ccccc13)C2 | 5.88 µM
CN(C)CC(C(=O)c1ccccc1)c1ccccc1 (centres undefined) | 3.58 µM
N#CCCS(=O)(=O)c1nnnn1-c1ccccc1 | 1.34 µM
CCc1ccc2c(COC(=O)c3n[nH]c4ccccc34)cc(=O)oc2c1 | > 95.1 µM (inactive)
COc1ccc(N=c2scc(-c3ccc(S(=O)(=O)N4CCOCC4)cc3)n2CCCO)cc1 | > 30 µM (inactive)
O=C(Nc1ccc(N2CCCCC2)c(Cl)c1)c1ncn[nH]1 | > 95.1 µM (inactive)
CC(C)OCCCNc1ncnc2c1[nH]c1ccc(F)cc12 | 24.4 µM (inactive)
CCOC(=O)c1ccc(NC(=O)CCc2nc(-c3ccc(Cl)cc3)no2)cc1 | > 95.1 µM (inactive)
Cc1cc(C)cc(-c2nc(-c3ccncc3)no2)c1 | > 95.1 µM (inactive)
CCN(CC)C(=O)C1CCN(S(=O)(=O)c2ccc3oc4ccccc4c3c2)CC1 | > 95.1 µM (inactive)
Cc1cc(C(=O)CN2C(=O)c3ccccc3C2=O)c(C)n1Cc1cccs1 | > 95.1 µM (inactive)
CC1CCCC(C)N1C(=O)CN1CCN(c2nc(-c3ccc(F)cc3)cs2)CC1 (centres undefined) | 21.7 µM (inactive)
O=C(c1ccc(F)cc1)C(CN1CCOCC1)c1ccccc1 (centres undefined) | 11.4 µM (inactive)
CCC(=NCc1ccc2c(c1)OCO2)c1c(O)n(C2CCCCC2)c(=O)[nH]c1=O | 26.6 µM (inactive)
O=C(c1ccco1)N1CCN(c2ncnc3c2[nH]c2ccc(Br)cc23)CC1 | > 10 µM (inactive)
Oc1ccc(-c2nc(-c3ccc(O)c(O)c3)cs2)cc1 | 6.35 µM
CCc1c(C)sc(NC(=O)c2cc(-c3ccco3)on2)c1C#N | > 95.1 µM (inactive)
O=C(c1cc(-c2ccco2)on1)N1CCN(C(c2ccccc2)c2ccccc2)CC1 | > 95.1 µM (inactive)
O=S(=O)(Nc1ccc2c(c1)OCCO2)c1ccc2oc3ccccc3c2c1 | 16.4 µM (inactive)
Cc1ccc(NC(=O)c2cc(-c3ccco3)on2)cc1C | > 95.1 µM (inactive)
